From US20250269091A1, “UTILIZATION OF ELECTROPHORETIC DEPOSITION TO COAT MEDICAL IMPLANTS WITH THERAPEUTIC AGENTS IN A STERILE CLINICAL SETTING” (Rush University Medical Center, priority 2022, published 2025)

Experiments:
[1] = tested on: S. aureus Xen36; experiment: Minimal inhibitory concentration by broth dilution method; assay type: cell-based, Staphylococcus aureus; details: against S. aureus Xen36, broth dilution
Protocol: FIGS. 17-20 show tests of the titanium rod of FIG. 3 against Staphylococcus aureus by agar dilution and liquid culture methods. To determine the antimicrobial activity of the loaded wires, S. aureus (Xen36, derived from ATCC 49525) bacteria were cultured overnight at 37° C. in Luria-Bertani medium. The minimal inhibitory concentration of gentamicin was determined by the broth dilution method. In the agar diffusion test, 100 μl of 1×10^6 colony forming units/ml S. aureus solution was inoculated on agar plates and dried. […] The inhibition zones (IZ) 1708, 1710 around the components were measured following 24 hours incubation at 37° C.
In the agar diffusion assay, an elliptical shaped IZ 1708 formed around the loaded wire 1702 (35 mm shorter and 45 mm longer axis).

[2] = tested on: S. aureus; details: 4 ml of 1×10^5 CFU/ml S. aureus, 24 hours
Protocol: A gentamicin-loaded chitosan-coated wire was placed in one tube (loaded wire, LW). 0.25 mg gentamicin was added to the second tube (antibiotic control, AC). The third tube contained bacteria only and served as growth control (GC). The tubes were incubated for 24 hours, and the absorbance of the solutions was measured with a spectrophotometer in each tube.

[3] = Gentamicin release from titanium nanotubes, fractional volume sampling; assay type: physicochemical
Protocol: FIG. 13 illustrates a line graph showing the amount of gentamicin 2300 released from a titanium surface per hour 2400 after a two-step EPD process, as described above. […] Fractional volume sampling was carried out for 3 days. FIG. 15 illustrates the gentamicin concentration in the release solution, and FIG. 16 represents the cumulative release of gentamicin. An initial burst release was observed of around 78% in the first 10 minutes, then gentamicin was released at a slower rate up to 3 days.

## gentamicin
[1]
  MIC: 3.6 mg/L
[2]
  bacterial density (absorbance) compared to growth control: significantly decreased bacterial density
[3]; after the initial burst
  duration of slower release of gentamicin: up to 3 days
[3]; entire period tested (3 days)
  drug concentration in release solution relative to MIC: stayed above the determined minimum inhibitory concentration (MIC)
[3]; first 10 minutes, titanium nanotube surface after two-step EPD with gentamicin and chitosan
  initial burst release of gentamicin: around 78%
[3]; release over 3 days, titanium nanotube surface after two-step EPD
  cumulative amount of gentamicin detected: 400 to 550 µg
